According to PubChem BioAssay (NCI):
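Compound exposure: 48 hours, 5 concentrations, 96-well plates. The concentration for 50% growth inhibition is given as GI50. TGI: total growth inhibition.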

Legend:
Experiment in all cases: NCI tumour cell line growth inhibition, 48 h
[1] = tested on: 786-0 renal
[2] = tested on: BT-549 breast
[3] = tested on: CCRF-CEM leukemia
[4] = tested on: HCT-15 colon
[5] = tested on: KM12 colon
[6] = tested on: LOX IMVI melanoma
[7] = tested on: NCI-H522 lung
[8] = tested on: OVCAR-8 ovarian
[9] = tested on: SK-MEL-28 melanoma
[10] = tested on: SNB-19 CNS

Row | SMILES | GI50 [1] [µM] | TGI [1] [µM] | GI50 [2] [µM] | TGI [2] [µM] | GI50 [3] [µM] | TGI [3] [µM] | GI50 [4] [µM] | TGI [4] [µM] | GI50 [5] [µM] | TGI [5] [µM] | GI50 [6] [µM] | TGI [6] [µM] | GI50 [7] [µM] | TGI [7] [µM] | GI50 [8] [µM] | TGI [8] [µM] | GI50 [9] [µM] | TGI [9] [µM] | GI50 [10] [µM] | TGI [10] [µM]
1 | O=C(Nc1n[nH]c2cc(-c3cc(F)ccc3F)ccc12)C1CC1 | > 25 | > 25 | > 21.7 | > 25 | 10.5 | > 25 | 8.39 | > 25 | 8.08 | > 25 | 14.4 | > 25 | 9.15 | > 25 | > 22 | > 25 | > 14.5 | > 25 | > 25 | > 25
2 | N=C1CCCC1C(=S)SCCC(N)=O (configuration not stated) |  | > 100 |  | > 100 |  | > 100 |  | > 100 |  | > 100 |  |  |  | > 100 |  | > 100 |  | > 100 |  | > 100
3 | Cn1c(I)c(C#C[Si](C)(C)C)c(=O)n(C(=O)c2ccccc2)c1=O | 3.49 | 11.7 | 12.2 | 25.6 | 0.432 |  | 2.45 | 7.3 | 12.1 | 27.8 | 2.79 | 8.26 | 4.19 | 8.99 | 12.4 | 26.1 | 2.03 | 3.8 | 15.5 | 31.8
4 | CC1=NN(c2cccc(Cl)c2)C(=O)/C1=C\c1cn(CC(O)CN2CCCCC2)c2ccccc12 (configuration not stated) | 7.46 | 20.8 | 15 | 29.5 | 3.38 | > 100 | 2.42 | 6.7 | 2.92 | 8.26 |  |  | 10.9 | 26.5 | 6.93 | 92.9 | 1.82 | 3.47 | 16.8 | 53.7
5 | N#C/C(=C\c1ccc2[nH]ccc2c1)C(=O)NCCCCNC(=O)/C(C#N)=C/c1ccc2[nH]ccc2c1 |  | > 31.6 |  | > 10 |  | > 31.6 |  | > 31.6 |  | > 31.6 |  | > 31.6 |  | > 31.6 |  | > 31.6 |  | > 31.6 |  | > 31.6
6 | O=C(Nc1sc2c(c1C(=O)O)CCCC2)c1ccco1 | > 50 | > 50 | > 50 | > 50 | > 50 | > 50 | 30.6 | > 50 | 29.5 | > 50 | 22.8 | > 50 | > 50 | > 50 | > 50 | > 50 | > 50 | > 50 | 29.5 | > 50
7 | COc1cc2c(cc1OCCNC(=O)/C=C1\C[C@H]3C=Nc4cc(OCc5ccccc5)c(OC)cc4C(=O)N3C1)N=C[C@@H]1CCCN1C2=O | 3.68 | 16.8 | 17 | > 100 |  |  | 37.4 | > 100 | 9.31 | 28.8 | 2.75 | 7.31 | 1.62 | 3.88 | 3.89 | 23.1 | 18.1 | 46.3 | 8.62 | > 100
8 | CCCCCCCC/C=C/CCCCCCCC1=NC(C)(C)CN1C(C)(C)CO | 1.64 | 3.12 | 11.3 | 24.1 | 3.04 | 11.4 |  |  | 1.97 | 3.45 | 1.61 | 2.98 | 1.83 | 3.7 |  |  | 1.79 | 3.18 | 2.39 | 6.55
9 | COc1ccc(-c2ccc(C3CC(c4ccccc4)=NN3)o2)c([N+](=O)[O-])c1 (configuration not stated) | 60.6 | > 100 | 47.4 | > 100 | 23.2 | 72.2 | 37.4 | > 100 | 27.3 | > 100 |  |  | 58.4 | > 100 | 51.2 | > 100 | > 100 | > 100 | 86.2 | > 100
10 | CCOC(=O)Nc1ccc2nc(-c3cscn3)[nH]c2c1 | 9.16 | > 100 | 7.1 | > 100 | 7.01 | > 100 | 2.2 | > 100 | 2.05 | > 100 | 5.18 | > 100 | 2.43 | 21 | 7.89 | > 100 | 7.23 | > 100 | 5.73 | > 100
11 | Cc1cccc(N2C(=O)/C(=C/C(Cl)=C/c3ccc([N+](=O)[O-])cc3)SC2=S)c1C | 2.07 | 4.68 | 1.61 | 4.08 | 0.741 | > 89.5 | 0.874 | 4.77 |  |  | 1.42 | 3.25 | 2.18 | 5.58 | 1.08 | > 100 | 2.37 | 7 | 2.9 | > 100
12 | NC(N)=N/N=C\c1ccc(OCc2ccccc2)cc1 | 1.66 | 3.17 | 10.8 | 23 | 2.73 | 10 | 1.97 | 5.37 | 1.63 | 3.1 | 1.53 | 2.96 | 1.52 | 3.15 |  |  | 1.76 | 3.68 | 3.08 | 15.4
13 | O=c1c(Cc2ccc3c(c2)OCO3)nnc2sc(-c3cc(F)c(Cl)cc3Cl)nn12 | 17.2 | > 100 | 27.4 | 56 | 33.9 | > 100 | 70.6 | > 100 | 35.6 | > 100 | 44.4 | > 100 | 33.4 | > 100 | 36.9 | > 100 | 32.2 | > 100 | 34.3 | > 100
14 | CC(C)C[C@@H](N)[C@@H](O)C(=O)N[C@H](C(=O)N[C@H](C(=O)N[C@@H](CC(=O)O)C(=O)O)C(C)C)C(C)C | > 20 | > 20 | > 20 | > 20 | > 20 | > 20 | > 20 | > 20 | > 20 | > 20 | > 20 | > 20 | > 20 | > 20 | > 20 | > 20 | > 20 | > 20 | > 20 | > 20
15 | O=C1c2cccc3cccc(c23)C(=O)N1CCCCCN1CCN(CCN=c2cc3n(-c4ccc(Cl)cc4)c4ccccc4nc-3cc2Nc2ccc(Cl)cc2)CC1 | 9.6 | 30.7 | 22.2 | > 50 | 7.38 | 25.2 | 9.28 | 37.5 | 11.9 | 46.3 | 9.83 | 29.8 |  |  | 12 | > 50 | 18.9 | > 50 | 23 | > 50
16 | COc1ccc(-c2nc3ccccc3s2)cc1OC |  | > 100 |  | 57.6 |  | > 100 |  | > 100 |  | > 100 |  | > 100 |  |  |  | > 100 |  | > 100 |  | 28.3

Row | SMILES | GI50 [1] [µM] | TGI [1] [µM] | GI50 [2] [µM] | TGI [2] [µM] | GI50 [3] [µM] | TGI [3] [µM] | GI50 [4] [µM] | TGI [4] [µM] | GI50 [5] [µM] | TGI [5] [µM] | GI50 [6] [µM] | TGI [6] [µM] | GI50 [7] [µM] | TGI [7] [µM] | GI50 [8] [µM] | TGI [8] [µM] | GI50 [9] [µM] | TGI [9] [µM] | GI50 [10] [µM] | TGI [10] [µM]
17 | Cc1c(C)c([N+](=O)[O-])c2c(c1N)C(=O)c1ccccc1C2=O |  | > 100 |  |  |  | > 100 |  | > 100 |  | > 100 |  | > 100 |  | > 100 |  | > 100 |  | > 100 |  | > 100
18 | COC(=O)C1C=CCC2CCCCC21N1CCCC1 (configuration not stated) |  | > 100 |  |  |  | > 100 |  | > 100 |  | > 100 |  | > 100 |  | > 100 |  | > 100 |  | > 100 |  | > 100
19 | CC1CCC2C(C)C(=O)OC2C2(C)C(=O)C=CC12 (configuration not stated) |  | > 10 |  |  |  | > 10 |  | > 10 |  | > 10 |  | > 10 |  | > 10 |  | > 10 |  | > 10 |  | > 10
20 | COC1(OC)C2(Cl)C3=CCCC=C3C1(Cl)C(Cl)=C2Cl |  | > 100 |  |  |  | 42.4 |  | > 100 |  | > 100 |  | 30.2 |  | 33 |  | > 100 |  | > 100 |  | > 100
21 | O=C(c1ccccc1)C1N=NN(Cc2ccccc2[N+](=O)[O-])C1C(=O)c1ccccc1 (configuration not stated) |  | > 100 |  |  |  | > 100 |  | > 100 |  | > 100 |  | > 100 |  | > 100 |  | > 100 |  | > 100 |  | > 100
22 | C/C(=N/NC(=S)Nc1ccccc1)c1nc2ccc(Cl)cc2[nH]1 | 0.0918 | 0.368 | 0.135 | 0.924 | 0.039 | 7.18 | 0.0656 | 6.9 | 0.14 | 0.826 |  |  | 0.194 | 0.821 | 0.16 | 1.15 | 0.18 | 0.872 | 0.25 | 1.71
23 | CN(C)C(=S)/N=c1\ss/c(=N\C(=S)N(C)C)n1-c1cccc(Cl)c1 |  | > 100 |  |  |  | > 100 |  | > 100 |  | > 100 |  | > 100 |  | > 100 |  | > 100 |  | > 100 |  | > 100
24 | CC(=O)[CH-]C(C)=O.CC(=O)[CH-]C(C)=O.[O-]c1ccccc1.[O-]c1ccccc1.[Ti+4] | > 100 | > 100 |  |  | > 100 | > 100 | > 100 | > 100 | > 100 | > 100 | > 100 | > 100 | > 100 | > 100 | > 100 | > 100 | > 100 | > 100 | > 100 | > 100
25 | O=S(=O)(NC1=NCCN1C(=S)SN1CCn2c1nsc2=S)c1ccc(Cl)cc1 | 16.6 | 32.4 | 2.28 | 6.48 |  |  | 11.9 | 28.2 | 15.9 | 33.6 | 3.84 | 15.7 | 4.74 | 18.4 | 7.13 | > 100 | 4.85 | 20.7 | 14.5 | 36.4
26 | O=c1c(-c2ccc3c(c2)OCO3)coc2c3c(ccc12)OCO3 |  | 35.5 |  | 32.6 |  | > 100 |  | > 100 |  | > 100 |  | > 100 |  | 37.5 |  |  |  | > 100 |  | 44.9
27 | CCN(CC)C(=S)SSC(C)C | 17.3 | 31.7 | 13.4 | 30.5 | 4.26 | 30.8 | 22 | 65.4 |  |  | 4.67 | 24.1 | 0.0295 | 1.34 | 15.1 | 35.4 | 11.1 | 23.1 | 31.8 | > 100
28 | O=C(Nc1ccc(Cl)cc1C(F)(F)F)C(=O)Nn1c(=S)[nH]c2ccccc2c1=O |  | > 100 |  | > 100 |  | > 100 |  | > 100 |  | > 100 |  | > 100 |  |  |  | > 100 |  | > 100 |  | 
29 | Cc1n[nH]c2ccccc2c1=O |  | > 100 |  | > 100 |  |  |  | > 100 |  | > 100 |  | > 100 |  | > 100 |  | > 100 |  | > 100 |  | > 100
30 | COc1cc2c(cc1C)NC(=O)/C2=C/c1ccnc2ccccc12 | 35.3 | > 50 | 29.1 | > 50 |  |  | 20.5 | > 50 | 26.2 | > 50 |  |  | 8.35 | 41.7 | 19.1 | > 50 | 11.2 | 46.8 | 6.88 | 36.3
31 | CC(C)Cc1cnc(CC(C)C)c(=O)[nH]1 |  | > 100 |  | > 100 |  | > 100 |  | > 100 |  | > 100 |  | > 100 |  |  |  | > 100 |  | > 100 |  | > 100
32 | O=c1c(Cc2ccccc2)c(O)cc2n1CCC2 |  | > 100 |  |  |  | > 100 |  | > 100 |  | > 100 |  | > 100 |  | > 100 |  | > 100 |  | > 100 |  | > 100
